Experimental data from PubChem BioAssay AID180 (DTP/NCI, 2004).
Values joined by “and” are separate entries in the source; they are usually repeats but may differ in a detail not shown here. Identical values can stand only once.

System: BDF1 mice, Adenocarcinoma 755 s.c., tumor weight T/C
Assay: NCI In Vivo Anticancer Drug Screen. Data for tumor model Adenocarcinoma 755 (subcutaneous) in B6D2F1 (BDF1) mice
Details: endpoint: mean tumor weight, higher = larger tumour
Procedure, shortened: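 Tumor-bearing mice receive test compound while controls get vehicle alone. Antitumor effect is scored from survival or tumor dimensions as a T/C quotient.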

COB1OB(OC)OB(OC)O1
T/C (dose: 18.75 mg/kg/injection, schedule: Q01DX011 (ip), vehicle: water): 78 % of control | T/C (dose: 250.0 mg/kg/injection, schedule: Q#A X022 (oral), vehicle: water): 64 % of control | T/C (dose: 335.0 mg/kg/injection, schedule: Q01DX011 (ip), vehicle: other): 51 % of control | T/C (dose: 375.0 mg/kg/injection, schedule: Q01DX011 (im), vehicle: other): 59 % of control | T/C (dose: 375.0 mg/kg/injection, schedule: Q01DX011 (ip), vehicle: other): 75 % of control | T/C (dose: 375.0 mg/kg/injection, schedule: Q01DX011 (ip), vehicle: water): 61 % of control | T/C (dose: 375.0 mg/kg/injection, schedule: Q01DX011 (sc), vehicle: other): 81 % of control | T/C (dose: 450.0 mg/kg/injection, schedule: Q#A X022 (sc), vehicle: other): 40 % of control | T/C (dose: 500.0 mg/kg/injection, schedule: Q01DX011 (ip), vehicle: other): 41 % of control and 51 % of control | T/C (dose: 500.0 mg/kg/injection, schedule: Q01DX011 (oral), vehicle: other): 97 % of control and 75 % of control | T/C (dose: 500.0 mg/kg/injection, schedule: Q#A X022 (oral), vehicle: water): 43 % of control | T/C (dose: 600.0 mg/kg/injection, schedule: Q01DX011 (oral), vehicle: other): 53 % of control | T/C (dose: 600.0 mg/kg/injection, schedule: Q## X012 (oral), vehicle: other): 109 % of control | T/C (dose: 600.0 mg/kg/injection, schedule: Q#A X022 (im), vehicle: other): 28 % of control | T/C (dose: 600.0 mg/kg/injection, schedule: Q#A X022 (sc), vehicle: other): 74 % of control | T/C (dose: 750.0 mg/kg/injection, schedule: Q01DX011 (im), vehicle: other): 65 % of control and 74 % of control | T/C (dose: 750.0 mg/kg/injection, schedule: Q01DX011 (ip), vehicle: other): 43 % of control and 47 % of control and 55 % of control | T/C (dose: 750.0 mg/kg/injection, schedule: Q01DX011 (ip), vehicle: water): 20 % of control | T/C (dose: 750.0 mg/kg/injection, schedule: Q01DX011 (oral), vehicle: other): 71 % of control | T/C (dose: 750.0 mg/kg/injection, schedule: Q02DX006 (ip), vehicle: other): 71 % of control | T/C (dose: 750.0 mg/kg/injection, schedule: Q## X006 (ip), vehicle: other): 78 % of control | T/C (dose: 750.0 mg/kg/injection, schedule: Q#A X022 (oral), vehicle: water): 7 % of control and 21 % of control | T/C (dose: 750.0 mg/kg/injection, schedule: Q#A X022 (sc), vehicle: other): 43 % of control | T/C (dose: 800.0 mg/kg/injection, schedule: Q01DX011 (im), vehicle: other): 77 % of control | T/C (dose: 800.0 mg/kg/injection, schedule: Q#A X022 (im), vehicle: other): 50 % of control | T/C (dose: 1000.0 mg/kg/injection, schedule: Q01DX011 (im), vehicle: other): 48 % of control and 56 % of control | T/C (dose: 1000.0 mg/kg/injection, schedule: Q01DX011 (ip), vehicle: other): 14 % of control and 37 % of control | T/C (dose: 1000.0 mg/kg/injection, schedule: Q01DX011 (oral), vehicle: saline): 47 % of control | T/C (dose: 1000.0 mg/kg/injection, schedule: Q01DX011 (oral), vehicle: water): 37 % of control | T/C (dose: 1000.0 mg/kg/injection, schedule: Q02DX006 (ip), vehicle: other): 45 % of control | T/C (dose: 1000.0 mg/kg/injection, schedule: Q## X006 (ip), vehicle: other): 63 % of control | T/C (dose: 1000.0 mg/kg/injection, schedule: Q## X012 (oral), vehicle: other): 84 % of control | T/C (dose: 1000.0 mg/kg/injection, schedule: Q#A X022 (oral), vehicle: water): 8 % of control | T/C (dose: 1000.09 mg/kg/injection, schedule: Q01DX011 (oral), vehicle: other): 36 % of control | T/C (dose: 1125.0 mg/kg/injection, schedule: Q01DX011 (ip), vehicle: other): 43 % of control | T/C (dose: 1200.0 mg/kg/injection, schedule: Q01DX011 (im), vehicle: other): 22 % of control | T/C (dose: 1250.0 mg/kg/injection, schedule: Q01DX011 (sc), vehicle: other): 38 % of control | T/C (dose: 1250.0 mg/kg/injection, schedule: Q#A X022 (oral), vehicle: water): 2 % of control and 10 % of control | T/C (dose: 1500.0 mg/kg/injection, schedule: Q01DX011 (im), vehicle: other): 16 % of control and 30 % of control | T/C (dose: 1500.0 mg/kg/injection, schedule: Q01DX011 (ip), vehicle: water): 6 % of control | T/C (dose: 1500.0 mg/kg/injection, schedule: Q01DX011 (oral), vehicle: saline): 16 % of control | T/C (dose: 1500.0 mg/kg/injection, schedule: Q01DX011 (oral), vehicle: water): 16 % of control | T/C (dose: 1500.0 mg/kg/injection, schedule: Q01DX011 (sc), vehicle: other): 22 % of control | T/C (dose: 1500.0 mg/kg/injection, schedule: Q02DX006 (ip), vehicle: other): 37 % of control | T/C (dose: 1500.0 mg/kg/injection, schedule: Q## X006 (ip), vehicle: other): 58 % of control | T/C (dose: 1500.0 mg/kg/injection, schedule: Q## X012 (oral), vehicle: other): 51 % of control | T/C (dose: 2000.0 mg/kg/injection, schedule: Q01DX011 (oral), vehicle: saline): 14 % of control | T/C (dose: 2000.0 mg/kg/injection, schedule: Q01DX011 (oral), vehicle: water): 7 % of control | T/C (dose: 2000.0 mg/kg/injection, schedule: Q## X012 (oral), vehicle: other): 15 % of control | T/C (dose: 2500.0 mg/kg/injection, schedule: Q01DX011 (oral), vehicle: saline): 4 % of control | T/C (dose: 2500.0 mg/kg/injection, schedule: Q## X012 (oral), vehicle: other): 22 % of control

C[C@]12C=CC(=O)C=C1CC[C@@H]1[C@@H]2CC[C@]2(C)OC(=O)CC[C@@H]12
T/C (dose: 125.0 mg/kg/injection, schedule: Q01DX011 (sc), vehicle: steriod suspending solution): 80 % of control | T/C (dose: 250.0 mg/kg/injection, schedule: Q01DX011 (sc), vehicle: steriod suspending solution): 77 % of control | T/C (dose: 500.0 mg/kg/injection, schedule: Q01DX011 (sc), vehicle: steriod suspending solution): 109 % of control | T/C (dose: 1000.0 mg/kg/injection, schedule: Q01DX011 (sc), vehicle: steriod suspending solution): 75 % of control

O=c1cc2[nH]c(O)cn2c(=O)[nH]1
T/C (dose: 30.0 mg/kg/injection, schedule: Q01DX011 (ip), vehicle: carboxymethylcellulose (CMC)): 95 % of control and 73 % of control | T/C (dose: 120.0 mg/kg/injection, schedule: Q01DX011 (ip), vehicle: carboxymethylcellulose (CMC)): 47 % of control | T/C (dose: 240.0 mg/kg/injection, schedule: Q01DX011 (ip), vehicle: carboxymethylcellulose (CMC)): 64 % of control

O=C(O)CCC(=O)CCl
T/C (dose: 34.0 mg/kg/injection, schedule: Q01DX011 (ip), vehicle: methylcellulose (MC)): 46 % of control

CCOC1CCCC(n2cnc3c(Cl)ncnc32)O1 (stereo unspecified)
T/C (dose: 7.81 mg/kg/injection, schedule: Q01DX011 (ip), vehicle: methylcellulose (MC)): 64 % of control | T/C (dose: 15.63 mg/kg/injection, schedule: Q01DX011 (ip), vehicle: methylcellulose (MC)): 65 % of control | T/C (dose: 31.25 mg/kg/injection, schedule: Q01DX011 (ip), vehicle: methylcellulose (MC)): 43 % of control | T/C (dose: 62.5 mg/kg/injection, schedule: Q01DX011 (ip), vehicle: methylcellulose (MC)): 3 % of control and 17 % of control

CC(C)CN1CC(C)C(=O)N(c2ccccc2)C1=S (stereo unspecified)
T/C (dose: 15.0 mg/kg/injection, schedule: Q01DX011 (ip), vehicle: methylcellulose (MC)): 51 % of control | T/C (dose: 31.0 mg/kg/injection, schedule: Q01DX011 (ip), vehicle: methylcellulose (MC)): 89 % of control | T/C (dose: 62.0 mg/kg/injection, schedule: Q01DX011 (ip), vehicle: methylcellulose (MC)): 79 % of control | T/C (dose: 125.0 mg/kg/injection, schedule: Q01DX011 (ip), vehicle: methylcellulose (MC)): 57 % of control

CC(C)CCS(=O)(=O)OCCCCOS(=O)(=O)CCC(C)C
T/C (dose: 75.0 mg/kg/injection, schedule: Q01DX011 (ip), vehicle: methylcellulose (MC)): 67 % of control | T/C (dose: 100.0 mg/kg/injection, schedule: Q01DX011 (ip), vehicle: methylcellulose (MC)): 34 % of control | T/C (dose: 150.0 mg/kg/injection, schedule: Q01DX011 (ip), vehicle: methylcellulose (MC)): 89 % of control | T/C (dose: 200.0 mg/kg/injection, schedule: Q01DX011 (ip), vehicle: methylcellulose (MC)): 5 % of control | T/C (dose: 300.0 mg/kg/injection, schedule: Q01DX011 (ip), vehicle: methylcellulose (MC)): 60 % of control | T/C (dose: 400.0 mg/kg/injection, schedule: Q01DX011 (ip), vehicle: carboxymethylcellulose (CMC)): 56 % of control | T/C (dose: 400.0 mg/kg/injection, schedule: Q01DX011 (ip), vehicle: methylcellulose (MC)): 20 % of control | T/C (dose: 600.0 mg/kg/injection, schedule: Q01DX011 (ip), vehicle: carboxymethylcellulose (CMC)): 33 % of control | T/C (dose: 600.0 mg/kg/injection, schedule: Q01DX011 (ip), vehicle: methylcellulose (MC)): 75 % of control
